Laboratory results taken from patent publication US20250213574A1, “THERAPEUTIC COMBINATIONS COMPRISING UBIQUITIN- SPECIFIC-PROCESSING PROTEASE 1 (USP1) INHIBITORS AND CHEMOTHERAPY AGENTS” (KSQ Therapeutics, Inc., priority 2022, published 2025).
Like-named read-outs stand apart in the source and are kept apart here. One block for each compound: values may come before it.

Experiments:
Format in all cases: cell-based
[1] = tested on: NCIH1650; experiment: Colony formation (CFU) assay, NCIH1650; conditions: NCIH1650, lung, CFU ~14 days, wells with DMSO or 300 nM Compound 1, read-out: Chemotherapy nM IC50s
Procedure: (§1) In vitro experiments were conducted using the colony formation unit (CFU) assay on various cell lines. The CFU assay involved first establishing what cell plating density enabled the development of clearly interspersed colonies on a six-well plate when left to grow for around 14 days. […] At or around day 14 when clearly interspersed colonies were visible in the DMSO-treated wells, the cells were fixed and stained using 0.1% crystal violet in 10% ethanol for 20 minutes at room temperature. The plates were imaged then the amount of crystal violet stain in each well was quantified by extracting the crystal violet into 10% acetic acid and the absorbance measured at 565 nm.
(§2) For certain cell lines, multiple IC50 values were taken, and those are separated by commas. Synergy scores are in parentheticals.

[2] = tested on: OVSAHO; experiment: Colony formation (CFU) assay, OVSAHO; conditions: Homo sapiens, 336 h, ovary, CFU ~14 days, wells with DMSO or 300 nM Compound 1, read-out: Chemotherapy nM IC50s
Procedure: as §1, §2

[3] = tested on: NCIH1915; experiment: Colony formation (CFU) assay, NCIH1915; conditions: NCIH1915, lung, CFU ~14 days, wells with DMSO or 300 nM Compound 1, read-out: Chemotherapy nM IC50s
Procedure: as §1, §2

[4] = tested on: A549; experiment: Colony formation (CFU) assay, A549; conditions: Homo sapiens, 336 h; A549, lung; CFU ~14 days; wells with DMSO or 300 nM Compound 1; read-out: Chemotherapy nM IC50s
Procedure: as §1, §2

[5] = tested on: UWB1289; experiment: Colony formation (CFU) assay, UWB1289; conditions: 336 h; UWB1289, ovary; CFU ~14 days; wells with DMSO or 300 nM Compound 1; read-out: Chemotherapy nM IC50s
Procedure: as §1, §2

[6] = tested on: COV362; experiment: Colony formation (CFU) assay, COV362; conditions: 336 h; COV362, ovary; CFU ~14 days; wells with DMSO or 300 nM Compound 1; read-out: Chemotherapy nM IC50s
Procedure: as §1, §2

[7] = tested on: HCC1806; experiment: Colony formation (CFU) assay, HCC1806; conditions: HCC1806, breast, CFU ~14 days, wells with DMSO or 300 nM Compound 1, read-out: Chemotherapy nM IC50s (converted)
Procedure: as §1, §2

[8] = tested on: HPAC; experiment: Colony formation (CFU) assay, HPAC; conditions: Homo sapiens, 336 h, pancreas, CFU ~14 days, wells with DMSO or 300 nM Compound 1, read-out: Chemotherapy nM IC50s
Procedure: as §1, §2

[9] = tested on: MDAMB231; experiment: Colony formation (CFU) assay, MDAMB231; conditions: MDAMB231, breast, CFU ~14 days, wells with DMSO or 300 nM Compound 1, read-out: Chemotherapy nM IC50s
Procedure: as §1, §2

[10] = tested on: CAPAN2; experiment: Colony formation (CFU) assay, CAPAN2; conditions: CAPAN2, pancreas, CFU ~14 days, wells with DMSO or 300 nM Compound 1, read-out: Chemotherapy nM IC50s
Procedure: as §1, §2

[11] = tested on: HCC1937; experiment: Colony formation (CFU) assay, HCC1937; conditions: HCC1937, breast, CFU ~14 days, wells with DMSO or 300 nM Compound 1, read-out: Chemotherapy nM IC50s
Procedure: as §1, §2

[12] = tested on: ACCMESO1; experiment: Colony formation (CFU) assay, ACCMESO1; conditions: ACC-MESO-1, 336 h; ACCMESO1, pleura; CFU ~14 days; wells with DMSO or 300 nM Compound 1; read-out: Chemotherapy nM IC50s
Procedure: as §1, §2

[13] = tested on: NCIH2452; experiment: Colony formation (CFU) assay, NCIH2452; conditions: Homo sapiens, NCI-H2452, 336 h; NCIH2452, pleura; CFU ~14 days; wells with DMSO or 300 nM Compound 1; read-out: Chemotherapy nM IC50s
Procedure: as §1, §2

[14] = tested on: MERO14; experiment: Colony formation (CFU) assay, MERO14; conditions: CFU ~14 days, wells with DMSO or 300 nM Compound 1, read-out: Chemotherapy nM IC50s
Procedure: as §1, §2

[15] = tested on: MSTO211H; experiment: Colony formation (CFU) assay, MSTO211H; conditions: pleura, CFU ~14 days, wells with DMSO or 300 nM Compound 1, read-out: Chemotherapy nM IC50s
Procedure: as §1, §2

[16] = tested on: KALS1; experiment: Colony formation (CFU) assay, KALS1; conditions: Homo sapiens, KALS-1, 336 h; KALS1, nervous system; CFU ~14 days; wells with DMSO or 300 nM Compound 1; read-out: Chemotherapy nM IC50s
Procedure: as §1, §2

[17] = tested on: BECKER; experiment: Colony formation (CFU) assay, BECKER; conditions: CFU ~14 days, wells with DMSO or 300 nM Compound 1, read-out: Chemotherapy nM IC50s
Procedure: as §1, §2

[18] = tested on: U251MG; experiment: Colony formation (CFU) assay, U251MG; conditions: nervous system, CFU ~14 days, wells with DMSO or 300 nM Compound 1, read-out: Chemotherapy nM IC50s
Procedure: as §1, §2

[19] = tested on: SUM149PT; experiment: Colony formation (CFU) assay, SUM149PT; conditions: breast
Procedure: as §1, §2

[20] = tested on: 647V; experiment: Colony formation (CFU) assay, 647V; conditions: Homo sapiens, 336 h, bladder, CFU ~14 days, wells with DMSO or 300 nM Compound 1, read-out: Chemotherapy nM IC50s
Procedure: as §1, §2

SMILES: CC(=O)O[C@H]1C(=O)[C@@]2(C)[C@H]([C@H](OC(=O)c3ccccc3)[C@]3(O)C[C@H](OC(=O)[C@H](O)[C@@H](NC(=O)c4ccccc4)c4ccccc4)C(C)=C1C3(C)C)[C@]1(OC(C)=O)CO[C@@H]1C[C@@H]2O [Pacli., paclitaxel]
IC50 ([1]; Homo sapiens, NCI-H1650, 336 h): 1 nM
IC50 [1]: < 1 nM
IC50 [2]: 78 nM
IC50 ([3]; NCI-H1915, 336 h): < 1 nM
IC50 [4]: 2 nM
IC50 [5]: 43 nM
IC50 [6]: 13 nM
IC50 [7]: < 1 nM
IC50 ([7]; Homo sapiens, HCC1806, 336 h): 1 nM
IC50 [8]: 3 nM
IC50 ([9]; Homo sapiens, MDA-MB-231, 336 h): 1 nM
IC50 [9]: < 1 nM
IC50 [10]: < 1 nM
IC50 ([10]; Homo sapiens, Capan-2, 336 h): 2 nM

SMILES: COc1cccc2c1C(=O)c1c(O)c3c(c(O)c1C2=O)C[C@@](O)(C(=O)CO)C[C@@H]3O[C@H]1C[C@H](N)[C@H](O)[C@H](C)O1 [Dox., doxorubicin]
IC50 [11]: 4 nM
IC50 ([11]; Homo sapiens, HCC1937, 336 h): 8 nM
IC50 [2]: 147 nM
IC50 [12]: 19 nM
IC50 [13]: 21 nM
IC50 [5]: 76 nM
IC50 [6]: 108 nM
IC50 ([14]; 336 h): 17 nM
IC50 [14]: 14 nM
IC50 ([15]; Homo sapiens, MSTO-211H, 336 h): 16 nM
IC50 [15]: 8 nM
IC50 [16]: 52 nM

IC50 [1]: 270 nM
IC50 [17]: 837 nM
IC50 [3]: 500 nM
IC50 [18]: 583 nM
SMILES: COc1cc([C@@H]2c3cc4c(cc3[C@@H](O[C@@H]3O[C@@H]5CO[C@@H](C)O[C@H]5[C@H](O)[C@H]3O)[C@H]3COC(=O)[C@H]23)OCO4)cc(OC)c1O [Etop., etoposide]

IC50 ([19]; Homo sapiens, 336 h, CFU ~14 days, wells with DMSO or 300 nM Compound 1, read-out: Chemotherapy nM IC50s): 1 nM
IC50 ([7]; Homo sapiens, 336 h): < 1 nM
IC50 [20]: 2 nM
SMILES: Nc1ccn([C@@H]2O[C@H](CO)[C@@H](O)C2(F)F)c(=O)n1 [Gem., gemcitabine]
synergy score ([19]; chemotherapy agent in combination with 300 nM Compound 1): (−1)
